Results from PubChem BioAssay AID2060892 (Molecular Pharmacology Branch, DTP, NCI, 2025).

System: HOP-62 complex spheroids with HUVEC/MSC, viability
Test: Anticancer human tumor HOP-62 cell line growth inhibition [RAS];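 also: spheroids exposed to agents for seven days before readout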;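 as to viability, T/C: 100% = DMSO vehicle control viability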
Conditions: for viability, T/C: stronger effect = lower value; for IC50: curve of first compound
In short: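 Agents were tested in combination matrices in half-log decrements from a top concentration at or near clinical Cmax (10 microM if undetermined). Targets were multi-cell spheroids of tumour lines plus HUVEC and MSC stromal cells.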

## Nc1ccn(C2OC(CO)C(O)C2(F)F)c(=O)n1 (configuration not stated)
Compound 0.00316 µM
  viability, T/C: 101% [middle of 4 runs]
Compound 0.0316 µM
  viability, T/C: 13.5% [middle of 4 runs]
Compound 0.1 µM
  viability, T/C: 9.12% [middle of 4 runs]
Compound 0.316 µM
  viability, T/C: 9.08% [middle of 4 runs]
Compound 1 µM
  viability, T/C: 8.33% [middle of 4 runs]

## C=CC(=O)N1CCN(c2nc(OCC3CCCN3C)nc3c(F)c(-c4nc(N)cc(C)c4C(F)(F)F)c(Cl)cc23)C(C)C1 (configuration not stated) + CCn1c(-c2cccnc2C(C)OC)c2c3cc(ccc31)N1CCOC(CC(NC(=O)C(C(C)C)N(C)C(=O)C3(F)CCN(C(=O)C#CC(C)(C)N(C)C)CC3)C(=O)N3CCCC(N3)C(=O)OCC(C)(C)C2)C1
Second compound 0.000949 µM
  IC50: > 1 µM
Second compound 0.003 µM
  IC50: > 1 µM
Second compound 0.00949 µM
  IC50: > 1 µM
Second compound 0.03 µM
  IC50: > 1 µM
Second compound 0.0949 µM
  IC50: > 1 µM
Second compound 0.3 µM
  IC50: > 1 µM
Second compound 0.000949 µM, first compound 0.00316 µM
  viability, T/C: 103%
Second compound 0.000949 µM, first compound 0.01 µM
  viability, T/C: 101%
Second compound 0.000949 µM, first compound 0.0316 µM
  viability, T/C: 69.5%
Second compound 0.000949 µM, first compound 0.1 µM
  viability, T/C: 88.2%
Second compound 0.000949 µM, first compound 0.316 µM
  viability, T/C: 95.6%
Second compound 0.000949 µM, first compound 1 µM
  viability, T/C: 71.1%
Second compound 0.003 µM, first compound 0.00316 µM
  viability, T/C: 88.7%
Second compound 0.003 µM, first compound 0.01 µM
  viability, T/C: 87.3%
Second compound 0.003 µM, first compound 0.0316 µM
  viability, T/C: 76.8%
Second compound 0.003 µM, first compound 0.1 µM
  viability, T/C: 92.5%
Second compound 0.003 µM, first compound 0.316 µM
  viability, T/C: 84.9%
Second compound 0.003 µM, first compound 1 µM
  viability, T/C: 72.9%
Second compound 0.00949 µM, first compound 0.00316 µM
  viability, T/C: 90.4%
Second compound 0.00949 µM, first compound 0.01 µM
  viability, T/C: 87.6%
Second compound 0.00949 µM, first compound 0.0316 µM
  viability, T/C: 85.3%
Second compound 0.00949 µM, first compound 0.1 µM
  viability, T/C: 89.8%
Second compound 0.00949 µM, first compound 0.316 µM
  viability, T/C: 91%
Second compound 0.00949 µM, first compound 1 µM
  viability, T/C: 74.7%
Second compound 0.03 µM, first compound 0.00316 µM
  viability, T/C: 91.3%
Second compound 0.03 µM, first compound 0.01 µM
  viability, T/C: 92%
Second compound 0.03 µM, first compound 0.0316 µM
  viability, T/C: 87.7%
Second compound 0.03 µM, first compound 0.1 µM
  viability, T/C: 94.9%
Second compound 0.03 µM, first compound 0.316 µM
  viability, T/C: 79.1%
Second compound 0.03 µM, first compound 1 µM
  viability, T/C: 84.3%
Second compound 0.0949 µM, first compound 0.00316 µM
  viability, T/C: 86.5%
Second compound 0.0949 µM, first compound 0.01 µM
  viability, T/C: 91.2%
Second compound 0.0949 µM, first compound 0.0316 µM
  viability, T/C: 83.3%
Second compound 0.0949 µM, first compound 0.1 µM
  viability, T/C: 92.7%
Second compound 0.0949 µM, first compound 0.316 µM
  viability, T/C: 71.8%
Second compound 0.0949 µM, first compound 1 µM
  viability, T/C: 87.6%
Second compound 0.3 µM, first compound 0.00316 µM
  viability, T/C: 95.4%
Second compound 0.3 µM, first compound 0.01 µM
  viability, T/C: 75.1%
Second compound 0.3 µM, first compound 0.0316 µM
  viability, T/C: 73%
Second compound 0.3 µM, first compound 0.1 µM
  viability, T/C: 70.2%
Second compound 0.3 µM, first compound 0.316 µM
  viability, T/C: 74.6%
Second compound 0.3 µM, first compound 1 µM
  viability, T/C: 79.4%
